Test results as given in ChEMBL document CHEMBL5465560, “Selectivity Literature for EUbOPEN Chemogenomic Library” (2024).

Tests used:
[1] = biological target: Interferon-induced, double-stranded RNA-activated protein kinase (Homo sapiens) (UniProt P19525); assay: Selectivity interaction (KinomeScan (DiscoverX)) EUB0000092b EIF2AK2; conditions: at 10 µM
[2] = biological target: Serine/threonine-protein kinase Chk2 (Homo sapiens) (UniProt O96017); assay: Selectivity interaction (Upstate Kinase Profiler service (Millipore)) EUB0000056c CHEK2; conditions: at 1 µM
[3] = biological target: T1, Ephrin type-B receptor 4 (Homo sapiens) (UniProt P54760); conditions: at 10 µM
T1 sequence (whole entry): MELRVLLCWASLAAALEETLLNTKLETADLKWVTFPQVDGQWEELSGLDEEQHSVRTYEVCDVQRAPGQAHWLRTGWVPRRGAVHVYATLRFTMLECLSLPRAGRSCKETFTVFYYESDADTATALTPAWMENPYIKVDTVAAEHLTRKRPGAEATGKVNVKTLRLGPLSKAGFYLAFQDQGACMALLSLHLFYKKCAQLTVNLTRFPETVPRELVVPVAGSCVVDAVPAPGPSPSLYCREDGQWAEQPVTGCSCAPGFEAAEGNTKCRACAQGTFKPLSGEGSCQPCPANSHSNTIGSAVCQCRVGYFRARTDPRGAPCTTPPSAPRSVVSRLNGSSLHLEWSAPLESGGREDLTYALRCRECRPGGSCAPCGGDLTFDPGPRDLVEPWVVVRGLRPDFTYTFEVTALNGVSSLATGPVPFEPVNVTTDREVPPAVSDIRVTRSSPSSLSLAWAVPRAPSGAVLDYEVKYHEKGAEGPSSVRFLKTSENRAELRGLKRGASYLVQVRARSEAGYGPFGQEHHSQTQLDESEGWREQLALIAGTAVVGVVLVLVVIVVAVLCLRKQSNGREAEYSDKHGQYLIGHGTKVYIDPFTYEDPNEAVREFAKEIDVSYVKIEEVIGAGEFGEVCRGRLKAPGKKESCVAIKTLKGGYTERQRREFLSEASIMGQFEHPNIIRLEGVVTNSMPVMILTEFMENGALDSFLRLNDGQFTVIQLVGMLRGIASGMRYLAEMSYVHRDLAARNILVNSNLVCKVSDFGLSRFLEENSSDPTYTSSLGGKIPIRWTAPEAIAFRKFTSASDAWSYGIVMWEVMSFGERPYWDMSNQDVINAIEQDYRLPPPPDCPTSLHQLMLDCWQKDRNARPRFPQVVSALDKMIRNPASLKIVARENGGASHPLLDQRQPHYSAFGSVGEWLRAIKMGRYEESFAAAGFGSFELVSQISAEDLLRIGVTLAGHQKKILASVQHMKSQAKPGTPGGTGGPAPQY

[4] = biological target: Mitogen-activated protein kinase kinase kinase 11 (Homo sapiens) (UniProt Q16584); assay: Selectivity interaction (ActivX KiNativ screen (kinase selectivity in THP-1 cell lysates)) EUB0000639a MAP3K11; type: subcellular; conditions: lysate, at 1 µM
[5] = biological target: T2, Serine/threonine-protein kinase TAO2 (Homo sapiens) (UniProt Q9UL54); assay: Selectivity interaction (KinomeScan (DiscoverX)) EUB0000607a TAOK2; conditions: at 10 µM
T2 sequence (whole entry): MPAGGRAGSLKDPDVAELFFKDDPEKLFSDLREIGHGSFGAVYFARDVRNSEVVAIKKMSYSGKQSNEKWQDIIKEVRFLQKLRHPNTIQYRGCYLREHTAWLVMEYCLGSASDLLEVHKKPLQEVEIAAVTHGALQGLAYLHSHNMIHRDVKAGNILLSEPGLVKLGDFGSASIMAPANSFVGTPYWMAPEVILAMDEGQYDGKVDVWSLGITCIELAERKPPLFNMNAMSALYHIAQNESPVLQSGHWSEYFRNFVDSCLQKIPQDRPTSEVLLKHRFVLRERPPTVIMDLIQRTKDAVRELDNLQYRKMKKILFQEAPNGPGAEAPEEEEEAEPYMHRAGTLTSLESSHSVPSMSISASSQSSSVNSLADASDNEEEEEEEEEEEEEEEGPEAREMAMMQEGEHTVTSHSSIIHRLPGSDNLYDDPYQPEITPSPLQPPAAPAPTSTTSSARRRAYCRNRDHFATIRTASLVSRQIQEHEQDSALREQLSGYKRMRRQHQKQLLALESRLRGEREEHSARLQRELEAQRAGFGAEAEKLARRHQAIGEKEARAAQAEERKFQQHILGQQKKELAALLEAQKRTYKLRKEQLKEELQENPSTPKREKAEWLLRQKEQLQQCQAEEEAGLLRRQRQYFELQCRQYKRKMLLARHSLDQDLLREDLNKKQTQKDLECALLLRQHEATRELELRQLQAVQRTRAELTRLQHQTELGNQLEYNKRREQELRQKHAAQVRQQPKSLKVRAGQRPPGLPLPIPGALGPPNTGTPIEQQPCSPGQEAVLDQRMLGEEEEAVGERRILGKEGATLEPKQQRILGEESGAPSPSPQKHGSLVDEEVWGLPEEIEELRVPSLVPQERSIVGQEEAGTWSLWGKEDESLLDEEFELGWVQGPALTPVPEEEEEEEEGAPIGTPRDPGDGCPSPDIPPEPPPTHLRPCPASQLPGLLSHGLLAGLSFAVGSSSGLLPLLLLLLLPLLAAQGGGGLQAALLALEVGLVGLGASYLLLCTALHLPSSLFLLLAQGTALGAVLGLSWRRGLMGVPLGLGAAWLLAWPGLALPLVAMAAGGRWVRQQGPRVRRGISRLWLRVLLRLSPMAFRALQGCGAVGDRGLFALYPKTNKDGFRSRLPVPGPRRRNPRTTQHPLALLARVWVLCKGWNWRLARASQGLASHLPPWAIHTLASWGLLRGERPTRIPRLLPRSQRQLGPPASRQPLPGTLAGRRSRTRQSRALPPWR

[6] = biological target: Cyclin-dependent kinase 13 (Homo sapiens, UniProt Q14004); assay: Selectivity interaction (ActivX KiNativ screen (ex vivo kinase selectivity in human PBMCs)) EUB0001619a CDK13; type: cell-based; conditions: PBMC, at 1 µM
Chain of Cyclin-dependent kinase 13 (Q14004 whole entry, looked up): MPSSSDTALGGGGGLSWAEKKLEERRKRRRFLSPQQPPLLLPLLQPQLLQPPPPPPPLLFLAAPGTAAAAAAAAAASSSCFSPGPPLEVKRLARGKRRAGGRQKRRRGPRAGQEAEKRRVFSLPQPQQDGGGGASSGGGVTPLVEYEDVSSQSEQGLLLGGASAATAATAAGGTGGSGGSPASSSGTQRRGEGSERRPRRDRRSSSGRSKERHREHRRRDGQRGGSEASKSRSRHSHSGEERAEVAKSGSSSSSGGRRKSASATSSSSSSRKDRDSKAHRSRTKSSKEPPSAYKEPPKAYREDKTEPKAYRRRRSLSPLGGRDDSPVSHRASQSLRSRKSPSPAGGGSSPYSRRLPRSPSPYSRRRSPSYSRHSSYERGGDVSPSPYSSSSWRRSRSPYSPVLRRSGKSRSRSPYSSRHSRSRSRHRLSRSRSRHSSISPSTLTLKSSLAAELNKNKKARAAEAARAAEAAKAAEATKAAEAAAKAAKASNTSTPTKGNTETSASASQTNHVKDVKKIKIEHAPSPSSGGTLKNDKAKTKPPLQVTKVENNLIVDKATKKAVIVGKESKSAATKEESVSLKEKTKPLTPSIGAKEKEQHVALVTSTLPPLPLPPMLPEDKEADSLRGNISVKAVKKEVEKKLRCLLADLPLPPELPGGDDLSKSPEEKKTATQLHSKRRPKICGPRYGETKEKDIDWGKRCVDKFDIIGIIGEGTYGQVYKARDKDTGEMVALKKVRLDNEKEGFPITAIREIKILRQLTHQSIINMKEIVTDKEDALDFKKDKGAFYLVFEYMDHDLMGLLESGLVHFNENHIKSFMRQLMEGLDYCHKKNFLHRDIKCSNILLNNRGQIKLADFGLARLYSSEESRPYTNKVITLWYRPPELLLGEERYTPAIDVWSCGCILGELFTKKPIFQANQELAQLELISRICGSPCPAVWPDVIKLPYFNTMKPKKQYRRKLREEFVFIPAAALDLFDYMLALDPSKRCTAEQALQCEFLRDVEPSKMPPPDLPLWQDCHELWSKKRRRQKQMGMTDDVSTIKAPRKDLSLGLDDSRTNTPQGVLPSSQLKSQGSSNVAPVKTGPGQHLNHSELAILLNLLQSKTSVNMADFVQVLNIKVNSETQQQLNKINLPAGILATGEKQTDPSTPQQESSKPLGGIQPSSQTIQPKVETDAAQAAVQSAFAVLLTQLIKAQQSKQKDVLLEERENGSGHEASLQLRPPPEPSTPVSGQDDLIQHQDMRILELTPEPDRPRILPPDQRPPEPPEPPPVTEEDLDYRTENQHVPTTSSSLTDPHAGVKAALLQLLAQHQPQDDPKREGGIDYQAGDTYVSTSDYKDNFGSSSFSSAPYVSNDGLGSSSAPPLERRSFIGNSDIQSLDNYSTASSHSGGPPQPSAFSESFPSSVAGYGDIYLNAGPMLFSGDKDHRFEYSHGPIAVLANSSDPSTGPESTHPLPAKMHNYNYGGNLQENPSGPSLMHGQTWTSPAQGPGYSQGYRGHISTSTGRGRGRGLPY

Chain of Mitogen-activated protein kinase kinase kinase 11 (Homo sapiens) (Q16584 whole entry, looked up): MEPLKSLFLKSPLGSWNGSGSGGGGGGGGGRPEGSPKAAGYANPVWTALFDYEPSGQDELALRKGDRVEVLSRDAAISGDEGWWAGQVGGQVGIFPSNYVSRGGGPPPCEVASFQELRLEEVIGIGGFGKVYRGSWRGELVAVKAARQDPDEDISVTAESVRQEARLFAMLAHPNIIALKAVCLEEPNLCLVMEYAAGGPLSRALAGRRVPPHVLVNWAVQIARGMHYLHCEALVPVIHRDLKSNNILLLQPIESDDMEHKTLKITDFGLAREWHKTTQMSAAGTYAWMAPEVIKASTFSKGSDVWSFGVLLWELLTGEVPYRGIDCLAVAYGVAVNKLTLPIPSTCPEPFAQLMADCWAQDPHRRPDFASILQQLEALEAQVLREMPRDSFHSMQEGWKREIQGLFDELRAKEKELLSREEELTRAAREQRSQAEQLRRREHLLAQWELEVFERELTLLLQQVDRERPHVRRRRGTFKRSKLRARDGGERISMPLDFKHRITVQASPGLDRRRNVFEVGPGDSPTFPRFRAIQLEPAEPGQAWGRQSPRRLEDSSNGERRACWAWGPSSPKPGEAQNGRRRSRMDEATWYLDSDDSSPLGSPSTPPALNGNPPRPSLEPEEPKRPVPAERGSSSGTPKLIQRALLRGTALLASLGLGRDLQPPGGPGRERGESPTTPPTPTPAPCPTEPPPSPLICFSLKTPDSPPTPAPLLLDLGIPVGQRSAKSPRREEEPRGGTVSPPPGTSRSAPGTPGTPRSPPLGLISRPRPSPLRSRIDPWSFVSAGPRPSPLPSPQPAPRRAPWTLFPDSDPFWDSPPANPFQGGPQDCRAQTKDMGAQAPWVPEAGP
Chain of Serine/threonine-protein kinase Chk2 (Homo sapiens) (O96017 whole entry): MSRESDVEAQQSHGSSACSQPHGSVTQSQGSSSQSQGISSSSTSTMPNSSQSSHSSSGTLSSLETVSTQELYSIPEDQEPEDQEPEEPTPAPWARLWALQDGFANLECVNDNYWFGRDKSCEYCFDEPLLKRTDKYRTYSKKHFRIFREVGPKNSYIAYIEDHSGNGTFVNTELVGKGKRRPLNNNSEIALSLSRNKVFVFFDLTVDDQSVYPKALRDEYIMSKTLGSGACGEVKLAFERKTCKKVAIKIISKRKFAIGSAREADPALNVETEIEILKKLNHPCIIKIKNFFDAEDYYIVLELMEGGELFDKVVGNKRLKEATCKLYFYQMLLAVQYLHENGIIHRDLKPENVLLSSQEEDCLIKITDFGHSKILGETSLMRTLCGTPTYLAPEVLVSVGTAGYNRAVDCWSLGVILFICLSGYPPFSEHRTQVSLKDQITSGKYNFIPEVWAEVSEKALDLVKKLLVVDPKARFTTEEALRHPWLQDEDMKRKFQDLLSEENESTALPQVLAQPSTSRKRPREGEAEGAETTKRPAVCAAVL
Chain of Interferon-induced, double-stranded RNA-activated protein kinase (Homo sapiens) (P19525 whole entry): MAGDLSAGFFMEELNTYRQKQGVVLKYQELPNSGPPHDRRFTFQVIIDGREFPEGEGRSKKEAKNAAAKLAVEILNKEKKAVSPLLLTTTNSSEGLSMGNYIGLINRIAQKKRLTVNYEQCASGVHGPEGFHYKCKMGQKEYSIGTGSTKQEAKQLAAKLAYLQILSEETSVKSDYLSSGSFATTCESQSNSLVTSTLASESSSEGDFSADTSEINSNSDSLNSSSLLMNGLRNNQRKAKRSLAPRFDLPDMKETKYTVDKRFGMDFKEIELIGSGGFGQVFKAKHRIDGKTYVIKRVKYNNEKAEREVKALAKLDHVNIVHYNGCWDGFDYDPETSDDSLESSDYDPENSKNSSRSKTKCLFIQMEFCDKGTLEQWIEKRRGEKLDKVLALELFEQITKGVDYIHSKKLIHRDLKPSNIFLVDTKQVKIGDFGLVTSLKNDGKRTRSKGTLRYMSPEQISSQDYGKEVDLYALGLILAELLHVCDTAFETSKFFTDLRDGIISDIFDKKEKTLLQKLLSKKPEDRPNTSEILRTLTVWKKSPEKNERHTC

Molecule `CCC(=O)N1CCN(c2ccc(-n3c(=O)ccc4cnc5ccc(-c6cnc7ccccc7c6)cc5c43)cc2C(F)(F)F)CC1` has a % of control [1] of 88%.
`Cc1ccc(-c2ccc3c(ccc4sc5c(c43)NC[C@@H](C)NC5=O)n2)cn1` gave a % of inhibition [2] of 44%.
`Cc1cc([C@@H](C)Nc2ccccc2C(=O)O)c2nc(N3CCOCC3)cc(=O)n2c1` [AZD-6482] gave a % of control [3] of 96%.
In the case of `CC[C@@H]1[C@H](F)C(=O)N[C@@H]1COc1nccc2cc(C(N)=O)c(OC)cc12` [ZIMLOVISERTIB], the % of inhibition [4] is reported as -22.3%.
Work on `CNC(=O)Nc1ccc(-c2nc(N3CC4CCC(C3)O4)c3cnn(C4CCC5(CC4)OCCO5)c3n2)cc1` yielded a % of control [5] of 100%.
With `N#Cc1cccc(-c2c[nH]c3ncnc(N4CCOCC4)c23)c1` the % of inhibition [6] was 3%.
